Data on seven molecules can be found in patent US9120749B2, “Quinoline derivatives and MELK inhibitors containing the same” (ONCOTHERAPY SCIENCE, INC., priority 2010, dated 2015).

Structures can show the parent of a compound that is named as a salt. Where two headings read alike, the source gives them in different places.

Assay [1] has as its system HT-1197 cells. Put plainly: Cell-based assay: anti-proliferative activity, Cell Counting Kit-8, 72 hours (HT-1197, negative control without MELK expression). The following applies: 72 hours. An outline of the steps: (§1)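 First, lysates underwent western blotting with anti-MELK antibody to establish expression. Next, cells went into 96-well plates. Then candidate inhibitors were added. Finally, viability was determined by CCK-8 at 72 h and IC50 computed.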

The test system of assay [2] is DU4475 cells. Put plainly: Cell-based assay: anti-proliferative activity, Cell Counting Kit-8, 72 hours (DU4475). (In general: Tetrazolium dyes change colour on reduction, which living cells bring about.)
In assay [3] the test system is 22Rv1 cells. Put plainly: Cell-based assay: anti-proliferative activity, Cell Counting Kit-8, 72 hours (22Rv1). Particulars: Homo sapiens.
The test system of assay [4] is T47D cells. Put plainly: Cell-based assay: anti-proliferative activity, Cell Counting Kit-8, 72 hours (T47D). An outline of the steps: as §1
For assay [5], the target named is MELK (Homo sapiens, UniProt Q14680). Put plainly: Kinase assay: MELK activity, phosphorylation of FITC-labeled histone H3 peptide measured by IMAP fluorescence polarization. The class given is biochemical. The following applies: read-out: IC50 (μM) (kinase assay). A digest of the protocol:
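Kinase reactions ran with or without test compound (final DMSO 1%) on a fluorescein-tagged H3 peptide. Progressive binding solution was added to terminate them. After a half-hour room-temperature incubation, polarization was measured.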

Assay [6] concerns A549 cells. Put plainly: Cell-based assay: anti-proliferative activity, Cell Counting Kit-8, 72 hours (A549). Particulars: 72 hours. An outline of the steps:
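Cell Counting Kit-8 read-out of A549 growth after 72 hours of inhibitor exposure, cells plated in 96-well format. Values reported as IC50.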

Assay [7] relates to 22Rv1 cells. Put plainly: Cell-based assay: anti-proliferative activity, Cell Counting Kit-8, 72 hours (22Rv1). Particulars: Homo sapiens. This is another data set of the same source.
Assay [8] concerns DU4475 cells. Put plainly: Cell-based assay: anti-proliferative activity, Cell Counting Kit-8, 72 hours (DU4475). This is another data set of the same source.
[9] abbreviates: HT1197 cells (negative control, no MELK expression), hydrochloride.

Sequence of MELK (Q14680 whole entry, looked up): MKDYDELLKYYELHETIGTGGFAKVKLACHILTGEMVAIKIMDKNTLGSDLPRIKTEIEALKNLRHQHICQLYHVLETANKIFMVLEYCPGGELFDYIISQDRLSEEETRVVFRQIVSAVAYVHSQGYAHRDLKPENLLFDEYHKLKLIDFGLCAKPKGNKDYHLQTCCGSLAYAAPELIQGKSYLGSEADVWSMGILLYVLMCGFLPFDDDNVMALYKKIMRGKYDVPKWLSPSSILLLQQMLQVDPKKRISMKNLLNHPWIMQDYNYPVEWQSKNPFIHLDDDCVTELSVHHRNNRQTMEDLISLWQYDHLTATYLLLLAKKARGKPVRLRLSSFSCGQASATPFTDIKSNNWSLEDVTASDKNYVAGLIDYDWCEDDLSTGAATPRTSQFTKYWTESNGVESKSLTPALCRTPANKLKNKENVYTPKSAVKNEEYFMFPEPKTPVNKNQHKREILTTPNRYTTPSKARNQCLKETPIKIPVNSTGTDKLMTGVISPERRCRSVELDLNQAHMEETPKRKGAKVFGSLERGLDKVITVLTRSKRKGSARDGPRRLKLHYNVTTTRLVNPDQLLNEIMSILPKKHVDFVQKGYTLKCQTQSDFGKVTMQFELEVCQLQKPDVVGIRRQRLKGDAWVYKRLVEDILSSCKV

On to `CC(=O)c1cnc2ccc(-c3cc(F)c(O)c(Cl)c3)cc2c1N[C@H]1CC[C@H](CCN(C)C)CC1` [Example 742, 1-(6-(3-chloro-5-fluoro-4-hydroxyphenyl)-4-(1R,4R)-4-(2-(dimethylamino)ethyl)cyclohexylamino)quinolin-3-yl)ethanone dihydrochloride], for which the IC50 (in general, the point on the concentration scale where inhibition reaches its midpoint) worked out at 1.7 µM in assay [1] (HT1197 cells (negative control, no MELK expression), dihydrochloride); 0.063 µM in assay [2] (dihydrochloride); 0.094 µM in assay [3]; 0.034 µM in assay [4] (72 hours, dihydrochloride); 0.0044 µM in assay [5] (dihydrochloride); 0.078 µM in assay [6] (dihydrochloride).
Regarding `N[C@H]1CCCN(c2ccc(Nc3c(C(=O)C4CC4)cnc4ccc(-c5cc(Cl)c(O)c(Cl)c5)cc34)cn2)C1` [Example 647, (S)-(4-(6-(3-aminopiperidin-1-yl)pyridin-3-ylamino)-6-(3,5-dichloro-4-hydroxyphenyl)quinolin-3-yl)(cyclopropyl)methanone hydrochloride], the 50% inhibitory concentration (IC50) in assay [1] (setting [9]) was 0.75 µM; in assay [2] (hydrochloride), 0.015 µM; in assay [3] it was 0.03 µM; in assay [4] (72 hours, hydrochloride), 0.03 µM; in assay [5] (hydrochloride) it was 0.0015 µM; in assay [6] (hydrochloride) it was 0.08 µM.
Take `CC(C)(N)c1ccc(Nc2c(C(=O)C3CC3)cnc3ccc(-c4cc(Cl)c(O)c(Cl)c4)cc23)cc1` [Example 602, {4-[4-(2-Aminopropan-2-yl)phenylamino]-6-(3,5-dichloro-4-hydroxyphenyl)quinolin-3-yl}(cyclopropyl)methanone]: the half-inhibitory concentration (IC50) was found to be 0.082 µM in assay [7]; 0.038 µM in assay [8]; 0.73 µM in assay [1] (HT1197 cells (negative control)); 0.13 µM in assay [4] (72 hours); 0.0011 µM in assay [5]; 0.074 µM in assay [6].
Turning to `CN(C)C1CCN(Cc2ccc(Nc3c(C(=O)C4CC4)cnc4ccc(-c5cc(Cl)c(O)c(Cl)c5)cc34)cc2)C1` (stereo not drawn) [Example 695, cyclopropyl(6-(3,5-dichloro-4-hydroxyphenyl)-4-(4-((3-(dimethylamino)pyrrolidin-1-yl)methyl)phenylamino)quinolin-3-yl)methanone hydrochloride], the IC50 in assay [1] (Homo sapiens, HT1197, 72 h, HT1197 cells (negative control, no MELK expression)) is 5.8 µM; in assay [2] (hydrochloride), 0.1 µM; in assay [3], 0.23 µM; in assay [4] (72 hours, hydrochloride), 0.26 µM; in assay [6] (hydrochloride), 0.13 µM.
Consider `CN[C@H]1CC[C@H](Nc2c(C(=O)C3CC3)cnc3ccc(-c4cc(Cl)c(O)c(OC)c4)cc23)CC1` [Example 517, {6-(3-Chloro-4-hydroxy-5-methoxyphenyl)-4-[trans-4-(methylamino)cyclohexylamino]quinolin-3-yl}(cyclopropyl)methanone], for which the IC50 stood at 0.18 µM in assay [7]; 0.048 µM in assay [8] (Homo sapiens, DU-4475, 72 h); 0.38 µM in assay [1] (Homo sapiens, HT1197, 72 h, HT1197 cells (negative control)); 0.067 µM in assay [4] (Homo sapiens, T47D, 72 h); 0.0014 µM in assay [5]; 0.072 µM in assay [6] (Homo sapiens, A549, 72 h).
With `CC(=O)c1cnc2ccc(-c3cc(Cl)c(O)c(Cl)c3)cc2c1N[C@H]1CC[C@H](CCN(C)C)CC1` [Example 740, 1-(6-(3,5-dichloro-4-hydroxyphenyl)-4-(trans-4-(2-(dimethylamino)ethyl)cyclohexylamino)quinolin-3-yl)ethanone hydrochloride], the half-maximal inhibitory concentration (IC50) was 3.5 µM in assay [1] (setting [9]); 0.087 µM in assay [2] (hydrochloride); 0.17 µM in assay [3]; 0.099 µM in assay [4] (72 hours, hydrochloride).
Turning to `O=C(c1cnc2ccc(-c3cc(F)c(O)c(Cl)c3)cc2c1N[C@H]1CC[C@H](CN2CCCC2)CC1)C1CC1` [Example 588, (6-(3-chloro-5-fluoro-4-hydroxyphenyl)-4-(1R,4R)-4-(pyrrolidin-1-ylmethyl)cyclohexylamino)quinolin-3-yl)(cyclopropyl)methanone hydrochloride], the half-maximal inhibitory concentration (IC50) in assay [7] stood at 0.16 µM; in assay [8] (hydrochloride) it was 0.063 µM; in assay [1] (HT1197 cells (negative control), hydrochloride), 0.46 µM; in assay [4] (72 hours, hydrochloride) it was 0.091 µM; in assay [5] (hydrochloride), 0.0037 µM; in assay [6] (hydrochloride), 0.096 µM.
